Assay results reported in patent EP0933027A1, “Methods and compositions for protecting animals and humans against attack and infestation by arthropod and helminth parasites” (American Cyanamid Company, priority 1998, dated 1999).
Where two headings read alike, the source gives them in different places.

How the values were obtained:
Dermacentor variabilis = assay: Contact activity against larval American dog tick (coated vial)
Procedure: This test is designed to evaluate the contact activity of test compounds against the American dog tick. Test compounds are dissolved in 100% acetone to 1000, 300, 100, 10, 1 and 0.1 ppm. 100 µL of each of these dilutions is added to the bottom of a 20 mL glass scintillation vial with a pipettor. The vial is allowed to dry under a fume hood for 15 minutes. The vial is then turned in its side, and 250 µL of each dilution is applied to the sides of the vial. The vial is placed on a rolling machine and allowed to roll under the hood, coating the sides of the vial, until the acetone completely evaporates. The bottom of the vial measures 4.909 cm^2 and the sides measure 4.5 cm high x 8.8 cm around, so that the total coated area of the scintillation vial measures 44.51 cm^2. The amount of test compound applied by each dilution equals 7.86, 2.36, 0.79, 0.079, 0.0079 and 0.00079 µg/cm^2, respectively. Unfed larval dog ticks are counted into the scintillation vials with a slightly damp paintbrush. Ten ticks are placed in each vial. These tests are done in replicates of two or three so that there are 20 to 30 ticks per rate/compound. Mortality readings are taken 4 and 24 hours after placing the ticks in the vials. To read the test, the vial is placed under a magnifying glass and tapped gently. […] Percent mortality is then calculated for each treatment.

Musca domestica = assay: Coated vial test against adult house fly
Procedure: This test is designed to evaluate the activity of test compounds against the house fly. Test compounds are dissolved in 100% acetone to 1000, 300, 100, 10 and 1 ppm. 100 µL of each of these dilutions is added to the bottom of a 20 mL glass scintillation vial with a pipettor. The vial is allowed to dry under a fume hood for 15 minutes. The vial is then turned on its side, and 250 µL of each dilution is applied to the sides of the vial. The vial is placed on a rolling machine and allowed to roll under the hood, coating the sides of the vial, until the acetone completely evaporates. The bottom of the vial measures 4.909 cm^2 and the sides measure 4.5 cm high x 8.8 cm around, so that the total coated area of the scintillation vial measures 44.51 cm^2. The amount of test compound applied by each dilution equals 7.86, 2.36, 0.79, 0.079, and 0.0079 µg/cm^2, respectively. Included in all tests are two to three replications of untreated vials. Adult house flies which are five to seven days old are chilled in a freezer for five minutes to immobilize, and are placed on a sorting platform which provides a steady stream of CO2 to keep the flies immobile. Five flies are counted into each scintillation vial with forceps. The top of the vial is plugged with a wad of sheet cotton sufficient to contain the flies. These tests are done in replicates of two to four so that there are 10 to 20 flies per rate/compound. Mortality readings are taken 1 and 4 hours after placing the flies in the vials. Flies which are unable to stand when disturbed are considered dead. Percent mortality is then calculated for each treatment.

[1] = dose 0.079 µg/cm^2, 4 hours, read-out: 4 Hour % Mortality
[2] = dose 0.790 µg/cm^2, 4 hours, read-out: 4 Hour % Mortality
[3] = dose 2.360 µg/cm^2, 4 hours, read-out: 4 Hour % Mortality

CCOc1ccc(C(/C(F)=C/Cc2ccc(F)c(Oc3ccccc3)c2)C2CC2)cc1 (centres unmarked) [Compound 10, 1-[1-(p-Ethoxyphenyl)-2-fluoro-4-(4-fluoro-3-phenoxyphenyl)-2-butenyl]cyclopropane, (Z)-]
mortality at 0.079 µg/cm2 (Dermacentor variabilis; [1]): 100% | mortality at 0.079 µg/cm2 (Dermacentor variabilis; dose 0.079 µg/cm^2, 24 hours, read-out: 24 Hour % Mortality): 100% | mortality at 0.79 µg/cm2 (Dermacentor variabilis; [2]): 100% | mortality at 0.79 µg/cm2 (Dermacentor variabilis; dose 0.790 µg/cm^2, 24 hours, read-out: 24 Hour % Mortality): 100% | mortality at 2.36 µg/cm2 (Dermacentor variabilis; [3]): 100% | mortality at 2.36 µg/cm2 (Dermacentor variabilis; dose 2.360 µg/cm^2, 24 hours, read-out: 24 Hour % Mortality): 100% | mortality at 7.86 µg/cm2 (Dermacentor variabilis; dose 7.860 µg/cm^2, 4 hours, read-out: 4 Hour % Mortality): 100% | mortality at 7.86 µg/cm2 (Dermacentor variabilis; dose 7.860 µg/cm^2, 24 hours, read-out: 24 Hour % Mortality): 100% | mortality at 0.079 µg/cm2 (Musca domestica; dose 0.079 µg/cm^2, 1 hour, read-out: 1 Hour % Mortality): 20% | mortality at 0.079 µg/cm2 (Musca domestica; [1]): 60% | mortality at 0.79 µg/cm2 (Musca domestica; dose 0.790 µg/cm^2, 1 hour, read-out: 1 Hour % Mortality): 20% | mortality at 0.79 µg/cm2 (Musca domestica; [2]): 75% | mortality at 2.36 µg/cm2 (Musca domestica; dose 2.360 µg/cm^2, 1 hour, read-out: 1 Hour % Mortality): 40% | mortality at 2.36 µg/cm2 (Musca domestica; [3]): 100%
